One block for each compound: values may come before it.
Experiments:
[1] = test system: Geotrichum candidum mutant 9-2; experiment: UNLipase production by mutant in culture medium; assay type: cell-based
Experimental: It was determined early in our work that having fat or oil in the medium induced other lipases produced by Geotrichum strains. Thus fat or oil was eliminated from the medium. Then improvements for Bacto-Peptone were sought. A series of peptones or other organic nitrogen sources were tested including soy peptone, trypticase® (BBL) peptone, casamino acids, NZ amine® (Sheffield Products) and casein.
Next, the salt constituents were examined in the standard medium. […] The inclusion of these two salts in the medium gave a doubling of measured hydrolyric activity when assayed using the standard assay. […] Fifty mls of this medium are placed in 500 ml baffled flasks (Bellco) then shaken at 250 rpms at 25°-30° C.
The next goal was to find a mutant with enhanced productivity. Thus the mutagenesis of mutant 9-2 was undertaken as described above but the selection protocol was altered. In this case, after the 8° C. recovery period the mutant suspensions were placed in 50 ml sterile test tubes and frozen at -55° C. The period of freezing was then interrupted by thawing periods (about 4 hours) and followed by freezing at -55° C. Mutants were screened for lipase activity and selectivity. One mutant, 9-2-3-9, survived a cycle of 3 weeks of freezing which had been interrupted by 3 thaw cycles. The mutant 9-2-3-9 was distinctly different from its parent (9-2) in its colony morphology when grown on nutrient agar. The colony type was much more aerial than 9-2.
The mutant 9-2 was grown in the medium described above. Fifty mls were added to 500 ml baffled flasks (Bellco) and placed on a shaker maintained at 30° C. and shaken at 250 rpms. Production reaches a peak at about 30 hours, then declines slightly and remains low. The enzyme was harvested at 30 hours for a series of hydrolyric tests. The collection of the enzyme involves centrifugation of the broth at 5000 rpms in the Beckman GSA rotor for 10 minutes. The cell free broth was then decanted from the cell pellet. In some cases, high activity suspension were produced by a 70% ammonium sulfate precipitation of the broth.

[2] = test system: UNLipase; experiment: Esterification of fatty acid mixture from pressure-split beef tallow (PFA); assay type: biochemical, Geotrichum candidum; details: HPLC or GC; pentadecanoic acid internal standard
Experimental: The esterification of fatty acid mixtures was evaluated using typical fatty acid mixtures derived from pressure-split beef tallow, henceforth referred to as PFA. Samples of PFA were spiked with pentadecanoic acid as an internal standard. The resulting products were analyses by either HPLC (reverse phase C-18 column) or GC (FFAP capillary column).

[3] = test system: UNLipase; experiment: Fatty acid selectivity of lipase esterification; assay type: biochemical, Geotrichum candidum
Experimental: These preparations contained 50-200 mg of fatty acid, 0.5 ml concentrated broth, 0.5 ml water (buffer) and 100-300 ul of alcohol. Reactions were run at either 27, 30 or 37 degrees Celsius for 16 to 24 hours. The reaction was stopped by adding 2.0 ml ether.
Fatty acid and ester were extracted into ether and evaluated by thin layer chromatography. The esterification of oleic acid with various alcohols is present in Table 1.
The fatty acid selectivity of the lipase in esterification reactions was also evaluated in the manner described above, with results analyzed by thin layer chromatography, GC, HPLC and IR.

[4] = test system: UNLipase; experiment: Effect of metal ions on UNLipase; assay type: biochemical, Geotrichum candidum; details: 25 mM concentration
[5] = test system: UNLipase; experiment: Hydrolysis of simple (methyl) esters with UNLipase; assay type: biochemical, Geotrichum candidum; details: about 50 mM in isooctane, 37 degrees C, 4 hours
Text: Simple esters were subjected to UNLipase to determine the scope and extent of UNLipase selectivity. The esters evaluated were methyl esters of propionic, caprylic, nonanoic, caproic, palmitic and oleic acids. […] Approximately 2% of the methyl palmitate reacted, whereas 67% of the methyl oleate was hydrolyzed.

[6] = test system: G. candidum lipase; details: cited from earlier work
[7] = test system: UNLipase; experiment: Hydrolysis of pure triglycerides with UNLipase; assay type: biochemical, Geotrichum candidum; details: 1 hour at 37 degrees C; for ratio of hydrolysis for triolein:tripalmitolein:trilinolein: pure triglyceride in isooctane, relative to triolein 100
Experimental: The Enzyme was harvested using centrifugation at 5000 rpms, for example, in a Beckman GSA rotor for 10 minutes. This cell-free preparation was used to determine hydrolysis, esterification and transesterification properties.
Substrates were prepared in isooctane (2,2,4-trimethylpentane) at about 0.8 grams per 20 ml solvent. Assay procedures for determining lipase activity were those described by Kwon, D. Y. and Rhee, J. S., J. Amer. Oil Chem Soc. 63:89-92(1986). One modification was to perform some assays for one hour under nonagitated conditions to avoid difficulties in reproducing agitation rates.
Hydrolysis was greatest for triolein, with the ratio of hydrolysis for triolein: tripalmitolein:trilinolein of 100:65:82. […] The ratio of hydrolysis of triolein to tripalmitin was approximately 33:1.

[8] = added to culture medium of mutant 9-2

Compound: OC[C@H]1O[C@H](O[C@H]2[C@H](O)[C@@H](O)C(O)O[C@@H]2CO)[C@H](O)[C@@H](O)[C@@H]1O (mixture of isomers) [maltose]
effect on UNLipase production [1, 8]: no effect

Compound: O=P([O-])(O)O.[K+] [KH2 PO4]
effect on UNLipase production [1, 8]: benefit

ester formation in PFA mixture [2]: detected
Compound: CCCCC/C=C\C/C=C\CCCCCCCC(=O)O [Linoleic]

Compound: O=S(=O)([O-])[O-].[Mg+2] [MgSO4]
effect on UNLipase production ([1]; MgSO4 concentration increased to 0.5%): no further enhancement
effect on UNLipase production [1, 8]: benefit

ester formation in PFA mixture [2]: detected
Compound: CCCCCCCC/C=C\CCCCCCCC(=O)O [Oleic, oleic acid]

ester formation in PFA mixture [2]: detected
Compound: CCCCCC/C=C\CCCCCCCC(=O)O [Palmitoleic]

Compound: CCCCCCCCCCCCCCCCCC(=O)O [Stearic]
ester formation in PFA mixture [2]: not esterified

Compound: C=CCCCCCCCCC(=O)O [Undecenoic acid, 10-undecenoic acid]
effect on esterification of oleic acid [3]: inhibitor

Compound: [Ca+2] [calcium ions]
effect on UNLipase [4]: inhibited
effect on UNLipase production [1, 8]: did not enhance

Compound: O=C(CO)[C@@H](O)[C@H](O)[C@H](O)CO [fructose]
effect on UNLipase production [1, 8]: inhibited

Compound: O=C[C@H](O)[C@@H](O)[C@H](O)[C@H](O)CO [glucose]
effect on UNLipase production [1, 8]: inhibited

Compound: [Mg+2] [magnesium ions]
effect on UNLipase [4]: activated

Compound: OC[C@@H](O)[C@@H](O)[C@H](O)[C@H](O)CO [mannitol]
effect on UNLipase production [1, 8]: no effect

hydrolysis by UNLipase [5]: not hydrolyzed
Compound: CCCCCCCC(=O)OC [methyl ester of caprylic acid]

hydrolysis by UNLipase [5]: not hydrolyzed
Compound: CCCCCCCCC(=O)OC [methyl ester of nonanoic acid]

Compound: CCC(=O)OC [methyl ester of propionic acid]
hydrolysis by UNLipase [5]: not hydrolyzed

Compound: CCCCCCCC/C=C\CCCCCCCC(=O)OC [methyl oleate]
methyl ester hydrolyzed [5]: 67%
hydrolytic rate relative to palmitic methyl ester [6]: 10 times

methyl ester hydrolyzed [5]: Approximately 2%
Compound: CCCCCCCCCCCCCCCC(=O)OC [methyl palmitate]

Compound: CCCCCCCCCCCCCC(=O)O [myristic]
ester formation in PFA mixture [2]: not esterified

ester formation in PFA mixture [2]: not esterified
Compound: CCCCCCCCCCCCCCCC(=O)O [palmitic]

ester formation in PFA mixture [2]: not esterified
Compound: CCCCCCCCCCCCCCC(=O)O [pentadecanoic acid]

Compound: OC[C@H]1O[C@@](CO)(O[C@H]2O[C@H](CO)[C@@H](O)[C@H](O)[C@H]2O)[C@@H](O)[C@@H]1O [sucrose]
effect on UNLipase production [1, 8]: inhibited

ratio of hydrolysis for triolein:tripalmitolein:trilinolein [7]: 82
Compound: CCCCC/C=C\C/C=C\CCCCCCCC(=O)OCC(COC(=O)CCCCCCC/C=C\C/C=C\CCCCC)OC(=O)CCCCCCC/C=C\C/C=C\CCCCC [trilinolein]

Compound: CCCCCCCC/C=C\CCCCCCCC(=O)OCC(COC(=O)CCCCCCC/C=C\CCCCCCCC)OC(=O)CCCCCCC/C=C\CCCCCCCC [triolein]
ratio of hydrolysis for triolein:tripalmitolein:trilinolein [7]: 100

reactivity with UNLipase ([7]; saturated fatty acid triglycerides): showed any reactivity
Compound: CCCCCCCCCCCCCCCC(=O)OCC(COC(=O)CCCCCCCCCCCCCCC)OC(=O)CCCCCCCCCCCCCCC [tripalmitin]

ratio of hydrolysis for triolein:tripalmitolein:trilinolein [7]: 65
Compound: CCCCCC/C=C\CCCCCCCC(=O)OCC(COC(=O)CCCCCCC/C=C\CCCCCC)OC(=O)CCCCCCC/C=C\CCCCCC [tripalmitolein]

From US5591615A, “Mutant of Geotrichum candidum which produces novel enzyme system to selectively hydrolyze triglycerides” (priority 1995, dated 1997)
